pEC50: −log10 of the molar value.
tested on: HBV (encapsidated HBV DNA, HepG2.2.15 cells); assay: HBV replication inhibition assay, BDNA assay in HepG2.2.15 cells; type: cell-based; settings: Activity in BDNA-assay
How it was run: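 Encapsidated HBV DNA in DNase-treated, proteinase K-lysed supernatant was measured by branched DNA after 6 days' compound exposure, refreshed on day 3, of HepG2.2.15 cells in 0.5% DMSO. Signals normalized to DMSO-treated wells; EC50 from nonlinear regression of inhibition against log concentration.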

| Structure (SMILES) | pEC50 |
| --- | --- |
| C[C@@H]1Cc2nn3c(c2CN1C(=O)Nc1ccc(F)c(C(F)(F)F)c1)C(=O)N(C)CC(F)(CO)C3 (single isomer, unassigned) [Compound 133_D2, (3R,8S*)-8-fluoro-N-(4-fluoro-3-(trifluoromethyl)phenyl)-8-(hydroxymethyl)-3,10-dimethyl-11-oxo-1,3,4,7,8,9,10,11-octahydro-2H-pyrido[4′,3′:3,4]pyrazolo[1,5-a][1,4]diazepine-2-carboxamide_D2] | 7.00 to 9.00 |
| C[C@@H]1Cc2nn3c(c2CN1C(=O)Nc1ccc(F)c(C#N)c1)C(=O)N(C)CC(F)C3 (single isomer, unassigned) [Compound 137_D2, (3R,8S*)-N-(3-Cyano-4-fluorophenyl)-8-fluoro-3,10-dimethyl-11-oxo-1,3,4,7,8,9,10,11-octahydro-2H-pyrido[4′,3′:3,4]pyrazolo[1,5-a][1,4]diazepine-2-carboxamide] | 7.00 to 9.00 |

same assay, conditions: Hepatitis B virus, HepG2.2.15, Activity in BDNA-assay

| Structure (SMILES) | pEC50 |
| --- | --- |
| C[C@@H]1Cc2nn3c(c2CN1C(=O)Nc1ccc(F)c(C#N)c1)C(=O)N(C)CC(F)C3 (single isomer, unassigned) [Compound 137_D1, (3R,8R*)—N-(3-cyano-4-fluorophenyl)-8-fluoro-3,10-dimethyl-11-oxo-1,3,4,7,8,9,10,11-octahydro-2H-pyrido[4′,3′:3,4]pyrazolo[1,5-a][1,4]diazepine-2-carboxamide_D1] | 7.00 to 9.00 |
| C[C@@H]1Cc2nn3c(c2CN1C(=O)Nc1ccc(F)c(C(F)(F)F)c1)C(=O)N(C)CC(F)C3 (single isomer, unassigned) [Compound 138, (3R,8R*)-8-fluoro-N-(4-fluoro-3-(trifluoromethyl)phenyl)-3,10-dimethyl-11-oxo-1,3,4,7,8,9,10,11-octahydro-2H-pyrido[4′,3′:3,4]pyrazolo[1,5-a][1,4]diazepine-2-carboxamide] | 7.00 to 9.00 |
| C=C1CN(C)C(=O)c2c3c(nn2C1)CCN(C(=O)Nc1ccc(F)c(Cl)c1)C3 [Compound 001, N-(3-chloro-4-fluorophenyl)-10-methyl-8-methylene-11-oxo-1,3,4,7,8,9,10,11-octahydro-2H-pyrido[4′,3′:3,4]pyrazolo[1,5-a][1,4]diazepine-2-carboxamide] | 7.00 to 9.00 |
| CN1CC(O)(CO)Cn2nc3c(c2C1=O)CN(C(=O)Nc1ccc(F)c(Cl)c1)CC3 (stereo not shown) [Compound 003] | 6.00 to 6.30 |
| CN1CC(O)Cn2nc3c(c2C1=O)CN(C(=O)Nc1ccc(F)c(Cl)c1)CC3 (stereo not shown) [Compound 004, N-(3-chloro-4-fluorophenyl)-8-hydroxy-10-methyl-11-oxo-1,3,4,7,8,9,10,11-octahydro-2H-pyrido[4′,3′:3,4]pyrazolo[1,5-a][1,4]diazepine-2-carboxamide] | 7.00 to 9.00 |
| CN1CC(F)(F)Cn2nc3c(c2C1=O)CN(C(=O)Nc1ccc(F)c(Cl)c1)CC3 [Compound 005, N-(3-chloro-4-fluorophenyl)-8,8-difluoro-10-methyl-11-oxo-1,3,4,7,8,9,10,11-octahydro-2H-pyrido[4′,3′:3,4]pyrazolo[1,5-a][1,4]diazepine-2-carboxamide] | 7.00 to 9.00 |
| CN1CC(F)Cn2nc3c(c2C1=O)CN(C(=O)Nc1ccc(F)c(Cl)c1)CC3 (stereo not shown) [Compound 006, N-(3-chloro-4-fluorophenyl)-8-fluoro-10-methyl-11-oxo-1,3,4,7,8,9,10,11-octahydro-2H-pyrido[4′,3′:3,4]pyrazolo[1,5-a][1,4]diazepine-2-carboxamide] | 7.00 to 9.00 |
| CN1CC(F)Cn2nc3c(c2C1=O)CN(C(=O)Nc1ccc(F)c(Br)c1)CC3 (stereo not shown) [Compound 007, N-(3-bromo-4-fluorophenyl)-8-fluoro-10-methyl-11-oxo-1,3,4,7,8,9,10,11-octahydro-2H-pyrido[4′,3′:3,4]pyrazolo[1,5-a][1,4]diazepine-2-carboxamide] | 7.00 to 9.00 |
| CN1CC(F)Cn2nc3c(c2C1=O)CN(C(=O)Nc1ccnc(Br)c1F)CC3 (stereo not shown) [Compound 008, N-(2-bromo-3-fluoropyridin-4-yl)-8-fluoro-10-methyl-11-oxo-1,3,4,7,8,9,10,11-octahydro-2H-pyrido[4′,3′:3,4]pyrazolo[1,5-a][1,4]diazepine-2-carboxamide] | 7.00 to 9.00 |
| CN1CC(F)Cn2nc3c(c2C1=O)CN(C(=O)Nc1ccc(F)c(C#N)c1)CC3 (stereo not shown) [Compound 009, N-(3-cyano-4-fluorophenyl)-8-fluoro-10-methyl-11-oxo-1,3,4,7,8,9,10,11-octahydro-2H-pyrido[4′,3′:3,4]pyrazolo[1,5-a][1,4]diazepine-2-carboxamide] | 7.00 to 9.00 |
| Cc1cc(NC(=O)N2CCc3nn4c(c3C2)C(=O)N(C)CC(F)C4)ccc1F (stereo not shown) [Compound 010, 8-fluoro-N-(4-fluoro-3-methylphenyl)-10-methyl-11-oxo-1,3,4,7,8,9,10,11-octahydro-2H-pyrido[4′,3′:3,4]pyrazolo[1,5-a][1,4]diazepine-2-carboxamide] | 7.00 to 9.00 |
| CN1CC(F)Cn2nc3c(c2C1=O)CN(C(=O)Nc1ccc(F)c(C(F)(F)F)c1)CC3 (stereo not shown) [Compound 011, 8-fluoro-N-(4-fluoro-3-(trifluoromethyl)phenyl)-10-methyl-11-oxo-1,3,4,7,8,9,10,11-octahydro-2H-pyrido[4′,3′:3,4]pyrazolo[1,5-a][1,4]diazepine-2-carboxamide] | 7.00 to 9.00 |
| CN1CC(F)Cn2nc3c(c2C1=O)CN(C(=O)Nc1cc(Cl)c(F)cc1F)CC3 (stereo not shown) [Compound 012, N-(5-chloro-2,4-difluorophenyl)-8-fluoro-10-methyl-11-oxo-1,3,4,7,8,9,10,11-octahydro-2H-pyrido[4′,3′:3,4]pyrazolo[1,5-a][1,4]diazepine-2-carboxamide] | 7.00 to 9.00 |
| CN1CC(F)Cn2nc3c(c2C1=O)CN(C(=O)Nc1cc(Br)c(F)cc1F)CC3 (stereo not shown) [Compound 013, N-(5-bromo-2,4-difluorophenyl)-8-fluoro-10-methyl-11-oxo-1,3,4,7,8,9,10,11-octahydro-2H-pyrido[4′,3′:3,4]pyrazolo[1,5-a][1,4]diazepine-2-carboxamide] | 7.00 to 9.00 |
| CC1CN(C)C(=O)c2c3c(nn2C1)CCN(C(=O)Nc1ccc(F)c(Cl)c1)C3 (stereo not shown) [Compound 014, N-(3-chloro-4-fluoro-phenyl)-8,10-dimethyl-11-oxo-1,3,4,7,8,9-hexahydropyrido[2,3]pyrazolo[2,4-b][1,4]diazepine-2-carboxamide] | 7.00 to 9.00 |
| CN1CCCn2nc3c(c2C1=O)CN(C(=O)Nc1ccc(F)c(Cl)c1)CC3 [Compound 015, N-(3-chloro-4-fluoro-phenyl)-10-methyl-11-oxo-1,3,4,7,8,9-hexahydropyrido [2,3]pyrazolo[2,4-b][1,4]diazepine-2-carboxamide] | 7.00 to 9.00 |
| CCOC1CN(C)C(=O)c2c3c(nn2C1)CCN(C(=O)Nc1ccc(F)c(Cl)c1)C3 (stereo not shown) [Compound 017, N-(3-chloro-4-fluorophenyl)-8-ethoxy-10-methyl-11-oxo-1,3,4,7,8,9,10,11-octahydro-2H-pyrido[4′,3′:3,4]pyrazolo[1,5-a][1,4]diazepine-2-carboxamide] | 7.00 to 9.00 |
| CN1CC(N)Cn2nc3c(c2C1=O)CN(C(=O)Nc1ccc(F)c(Cl)c1)CC3 (stereo not shown) [Compound 019, 8-amino-N-(3-chloro-4-fluorophenyl)-10-methyl-11-oxo-1,3,4,7,8,9,10,11-octahydro-2H-pyrido[4′,3′:3,4]pyrazolo[1,5-a][1,4]diazepine-2-carboxamide] | 6.30 to 7.00 |
| CN1CC(N(C)C)Cn2nc3c(c2C1=O)CN(C(=O)Nc1ccc(F)c(Cl)c1)CC3 (stereo not shown) [Compound 020, N-(3-chloro-4-fluorophenyl)-8-(dimethylamino)-10-methyl-11-oxo-1,3,4,7,8,9,10,11-octahydro-2H-pyrido[4′,3′:3,4]pyrazolo[1,5-a][1,4]diazepine-2-carboxamide] | 7.00 to 9.00 |
| CN1CC(N2CCOCC2)Cn2nc3c(c2C1=O)CN(C(=O)Nc1ccc(F)c(Cl)c1)CC3 (stereo not shown) [Compound 021, N-(3-chloro-4-fluorophenyl)-10-methyl-8-morpholino-11-oxo-1,3,4,7,8,9,10,11-octahydro-2H-pyrido[4′,3′:3,4]pyrazolo[1,5-a][1,4]diazepine-2-carboxamide] | 6.30 to 7.00 |
| CN1CC(N2CC(F)(F)C2)Cn2nc3c(c2C1=O)CN(C(=O)Nc1ccc(F)c(Cl)c1)CC3 (stereo not shown) [Compound 022, N-(3-chloro-4-fluorophenyl)-8-(3,3-difluoroazetidin-1-yl)-10-methyl-11-oxo-1,3,4,7,8,9,10,11-octahydro-2H-pyrido[4′,3′:3,4]pyrazolo[1,5-a][1,4]diazepine-2-carboxamide] | 6.30 to 7.00 |
| CN1CC(N2CCC2)Cn2nc3c(c2C1=O)CN(C(=O)Nc1ccc(F)c(Cl)c1)CC3 (stereo not shown) [Compound 023, 8-(azetidin-1-yl)-N-(3-chloro-4-fluorophenyl)-10-methyl-11-oxo-1,3,4,7,8,9,10,11-octahydro-2H-pyrido[4′,3′:3,4]pyrazolo[1,5-a][1,4]diazepine-2-carboxamide] | 7.00 to 9.00 |
| CN1CC(N2CCCC2)Cn2nc3c(c2C1=O)CN(C(=O)Nc1ccc(F)c(Cl)c1)CC3 (stereo not shown) [Compound 024, N-(3-chloro-4-fluorophenyl)-10-methyl-11-oxo-8-(pyrrolidin-1-yl)-1,3,4,7,8,9,10,11-octahydro-2H-pyrido[4′,3′:3,4]pyrazolo[1,5-a][1,4]diazepine-2-carboxamide] | 7.00 to 9.00 |
| CSC1CN(C)C(=O)c2c3c(nn2C1)CCN(C(=O)Nc1ccc(F)c(Cl)c1)C3 (stereo not shown) [Compound 025, N-(3-chloro-4-fluorophenyl)-10-methyl-8-(methylthio)-11-oxo-1,3,4,7,8,9,10,11-octahydro-2H-pyrido[4′,3′:3,4]pyrazolo[1,5-a][1,4]diazepine-2-carboxamide] | 7.00 to 9.00 |
| CN1CC(S(C)(=O)=O)Cn2nc3c(c2C1=O)CN(C(=O)Nc1ccc(F)c(Cl)c1)CC3 (stereo not shown) [Compound 027, N-(3-chloro-4-fluoro-phenyl)-10-methyl-8-methylsulfonyl-11-oxo-1,3,4,7,8,9-hexahydropyrido[2,3]pyrazolo[2,4-b][1,4]diazepine-2-carboxamide] | 7.00 to 9.00 |
| COC(=O)CC1CN(C)C(=O)c2c3c(nn2C1)CCN(C(=O)Nc1ccc(F)c(Cl)c1)C3 (stereo not shown) [Compound 028, methyl 2-(2-((3-chloro-4-fluorophenyl)carbamoyl)-10-methyl-11-oxo-1,3,4,7,8,9,10,11-octahydro-2H-pyrido[4′,3′:3,4]pyrazolo[1,5-a][1,4]1diazepin-8-yl)acetate] | 6.30 to 7.00 |
